Test results reported in patent US20110152313A1 (MACQUARIE UNIVERSITY, priority 2008, published 2011).

Columns and labels:
Assay in all cases: kinase binding constant, 11-point dose response (T7 phage, qPCR)
Conditions in all cases: >30 = no inhibition at highest concentration tested
CDK7 = CDK7 (Homo sapiens, UniProt P50613)
Description: (§1) Kinase inhibition studies were performed by methods well known in the prior art (Fabian, M. A. et al. Nat. Biotechnol. 2005, 23, 329). Briefly, kinase-tagged T7 phage strains were prepared in an E. coli host derived from the BL21 strain. E. coli were grown to log-phase and infected with T7 phage and incubated with shaking at 32° C. until lysis. The lysates were centrifuged and filtered to remove cell debris. […] The liganded beads were blocked with excess biotin and washed with blocking buffer (SeaBlock (Pierce); 1% BSA, 0.05% Tween 20, 1 mM DTT) to remove unbound ligand and to reduce non-specific binding. […] All reactions were performed in polystyrene 96-well plates in a final volume of 0.135 ml. […] The kinase concentration in the eluates was measured by qPCR.
(§2) An 11-point 3-fold serial dilution of each test compound (from 30 μM to 0.5 nM) was prepared in 100% DMSO at 100× final test concentration and subsequently diluted to 1× in the assay (final DMSO concentration=1%). Binding constants (KDS) were calculated with a standard dose-response curve using a 5-point sigmoidal (Hill) equation.

PRKCE = target: T1, PRKCE (Homo sapiens, UniProt Q02156)
T1 sequence (Q02156 1-737): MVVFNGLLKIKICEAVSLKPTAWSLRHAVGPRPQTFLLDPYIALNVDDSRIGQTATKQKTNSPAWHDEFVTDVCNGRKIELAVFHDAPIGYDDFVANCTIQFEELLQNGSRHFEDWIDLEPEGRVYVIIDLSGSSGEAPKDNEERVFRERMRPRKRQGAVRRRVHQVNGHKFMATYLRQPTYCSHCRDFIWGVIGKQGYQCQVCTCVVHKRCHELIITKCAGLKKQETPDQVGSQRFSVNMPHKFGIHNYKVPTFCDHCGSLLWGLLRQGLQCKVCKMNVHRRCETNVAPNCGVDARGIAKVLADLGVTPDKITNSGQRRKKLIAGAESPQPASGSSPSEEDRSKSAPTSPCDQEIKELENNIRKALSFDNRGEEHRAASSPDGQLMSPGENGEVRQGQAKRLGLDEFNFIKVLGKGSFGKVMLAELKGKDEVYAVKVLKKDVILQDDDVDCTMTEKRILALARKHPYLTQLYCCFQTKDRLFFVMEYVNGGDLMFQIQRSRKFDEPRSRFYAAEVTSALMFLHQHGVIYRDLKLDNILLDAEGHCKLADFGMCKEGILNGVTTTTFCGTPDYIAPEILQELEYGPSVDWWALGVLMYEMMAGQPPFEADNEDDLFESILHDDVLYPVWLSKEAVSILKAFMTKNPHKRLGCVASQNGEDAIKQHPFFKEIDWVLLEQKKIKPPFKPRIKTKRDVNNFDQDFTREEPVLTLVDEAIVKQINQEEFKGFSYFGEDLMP
Description: as §1, §2

RSK1 = target: T2, RSK1 (Homo sapiens, UniProt Q15418)
T2 construct: RPS6KA1(Kin.Dom.2-C-terminal)
T2 sequence (Q15418 whole entry): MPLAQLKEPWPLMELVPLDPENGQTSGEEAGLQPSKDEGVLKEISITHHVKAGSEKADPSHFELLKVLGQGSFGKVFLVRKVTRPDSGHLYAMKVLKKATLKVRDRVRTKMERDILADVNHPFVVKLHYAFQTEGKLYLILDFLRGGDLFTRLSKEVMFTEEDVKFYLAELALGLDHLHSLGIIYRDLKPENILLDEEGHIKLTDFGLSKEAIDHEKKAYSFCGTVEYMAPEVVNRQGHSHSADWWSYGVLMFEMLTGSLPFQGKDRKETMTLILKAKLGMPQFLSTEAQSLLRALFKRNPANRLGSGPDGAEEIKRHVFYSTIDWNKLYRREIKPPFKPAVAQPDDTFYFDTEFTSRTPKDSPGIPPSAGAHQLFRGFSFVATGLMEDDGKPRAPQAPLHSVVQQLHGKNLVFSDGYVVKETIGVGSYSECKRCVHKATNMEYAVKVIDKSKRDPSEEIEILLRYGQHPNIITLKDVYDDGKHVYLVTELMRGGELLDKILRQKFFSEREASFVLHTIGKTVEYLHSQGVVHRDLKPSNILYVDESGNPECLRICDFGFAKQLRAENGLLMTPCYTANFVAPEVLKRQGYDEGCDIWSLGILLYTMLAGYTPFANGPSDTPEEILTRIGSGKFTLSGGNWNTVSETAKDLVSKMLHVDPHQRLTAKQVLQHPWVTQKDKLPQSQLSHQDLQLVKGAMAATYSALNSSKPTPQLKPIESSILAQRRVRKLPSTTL
Description: as §1, §2

AAK1 = AAK1 (Homo sapiens, UniProt Q2M2I8)
Sequence of AAK1 (Q2M2I8 whole entry): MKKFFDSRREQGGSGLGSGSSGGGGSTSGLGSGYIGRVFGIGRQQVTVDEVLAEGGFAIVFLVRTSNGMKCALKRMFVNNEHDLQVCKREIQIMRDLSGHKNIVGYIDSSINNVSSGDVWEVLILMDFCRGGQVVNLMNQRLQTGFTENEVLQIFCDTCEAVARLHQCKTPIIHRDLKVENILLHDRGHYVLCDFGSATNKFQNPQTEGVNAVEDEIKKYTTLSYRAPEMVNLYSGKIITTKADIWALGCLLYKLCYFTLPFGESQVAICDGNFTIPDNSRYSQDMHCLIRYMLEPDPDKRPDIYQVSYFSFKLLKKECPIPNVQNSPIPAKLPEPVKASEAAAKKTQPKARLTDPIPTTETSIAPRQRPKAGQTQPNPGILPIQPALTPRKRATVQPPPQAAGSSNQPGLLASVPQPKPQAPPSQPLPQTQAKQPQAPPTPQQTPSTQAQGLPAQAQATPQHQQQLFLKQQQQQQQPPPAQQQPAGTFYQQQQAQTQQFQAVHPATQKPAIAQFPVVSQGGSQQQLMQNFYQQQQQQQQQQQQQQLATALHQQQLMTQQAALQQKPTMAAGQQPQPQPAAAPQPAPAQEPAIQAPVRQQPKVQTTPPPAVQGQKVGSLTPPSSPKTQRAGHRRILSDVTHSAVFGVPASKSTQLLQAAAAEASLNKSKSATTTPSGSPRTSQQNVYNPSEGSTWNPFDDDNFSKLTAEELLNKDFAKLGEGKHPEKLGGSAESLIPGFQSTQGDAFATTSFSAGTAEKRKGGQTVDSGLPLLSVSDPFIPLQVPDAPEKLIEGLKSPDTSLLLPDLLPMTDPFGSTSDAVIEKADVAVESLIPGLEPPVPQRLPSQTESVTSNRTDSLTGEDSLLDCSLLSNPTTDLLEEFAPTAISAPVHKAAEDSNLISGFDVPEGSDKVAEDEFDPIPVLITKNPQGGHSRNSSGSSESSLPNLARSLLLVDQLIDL
Description: as §1, §2

CDKL5 = target: T3, CDKL5 (Homo sapiens, UniProt O76039)
T3 sequence (O76039 1-960): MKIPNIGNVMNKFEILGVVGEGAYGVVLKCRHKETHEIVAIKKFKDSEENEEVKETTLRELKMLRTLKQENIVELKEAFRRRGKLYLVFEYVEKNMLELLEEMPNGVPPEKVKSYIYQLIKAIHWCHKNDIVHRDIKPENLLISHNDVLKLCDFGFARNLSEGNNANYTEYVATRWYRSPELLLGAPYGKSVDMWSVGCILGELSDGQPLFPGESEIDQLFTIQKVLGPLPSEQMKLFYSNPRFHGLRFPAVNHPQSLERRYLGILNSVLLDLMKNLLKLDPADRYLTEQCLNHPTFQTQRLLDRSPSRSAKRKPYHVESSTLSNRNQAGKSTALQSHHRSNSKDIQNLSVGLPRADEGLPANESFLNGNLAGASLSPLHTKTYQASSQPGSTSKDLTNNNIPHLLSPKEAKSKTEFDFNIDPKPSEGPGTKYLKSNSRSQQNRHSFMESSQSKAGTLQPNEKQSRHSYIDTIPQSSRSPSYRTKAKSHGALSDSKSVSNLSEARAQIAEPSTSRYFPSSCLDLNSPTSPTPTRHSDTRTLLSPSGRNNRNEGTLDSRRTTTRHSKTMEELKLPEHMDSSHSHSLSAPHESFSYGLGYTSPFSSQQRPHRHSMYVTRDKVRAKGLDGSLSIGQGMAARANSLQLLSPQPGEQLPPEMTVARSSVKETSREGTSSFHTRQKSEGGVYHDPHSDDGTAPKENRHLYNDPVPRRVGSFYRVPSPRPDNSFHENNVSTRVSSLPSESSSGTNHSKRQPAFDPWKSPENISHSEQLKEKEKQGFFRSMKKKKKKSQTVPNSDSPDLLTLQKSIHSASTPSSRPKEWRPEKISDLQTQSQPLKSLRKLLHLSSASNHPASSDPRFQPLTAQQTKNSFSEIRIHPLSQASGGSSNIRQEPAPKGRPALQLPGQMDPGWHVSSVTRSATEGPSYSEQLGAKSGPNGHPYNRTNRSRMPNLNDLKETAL
Description: as §1, §2

BMPR1B = BMPR1B (Homo sapiens, UniProt O00238)
Sequence of BMPR1B (O00238 14-502): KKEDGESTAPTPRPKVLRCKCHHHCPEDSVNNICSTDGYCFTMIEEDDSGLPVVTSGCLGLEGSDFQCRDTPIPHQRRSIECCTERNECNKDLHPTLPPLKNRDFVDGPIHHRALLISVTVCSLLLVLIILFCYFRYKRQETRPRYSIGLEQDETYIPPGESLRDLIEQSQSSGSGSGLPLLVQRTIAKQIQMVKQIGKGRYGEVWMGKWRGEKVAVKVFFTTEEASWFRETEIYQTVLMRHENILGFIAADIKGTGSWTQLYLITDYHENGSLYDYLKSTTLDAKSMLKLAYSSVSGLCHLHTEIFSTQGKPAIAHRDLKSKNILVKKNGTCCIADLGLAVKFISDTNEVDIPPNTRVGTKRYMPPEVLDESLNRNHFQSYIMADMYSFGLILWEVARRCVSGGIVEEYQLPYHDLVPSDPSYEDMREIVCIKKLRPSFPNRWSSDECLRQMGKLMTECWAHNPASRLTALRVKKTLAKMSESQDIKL
Description: as §1, §2

YANK2 = YANK2 (Homo sapiens, UniProt Q9NY57)
Sequence of YANK2 (Q9NY57 whole entry): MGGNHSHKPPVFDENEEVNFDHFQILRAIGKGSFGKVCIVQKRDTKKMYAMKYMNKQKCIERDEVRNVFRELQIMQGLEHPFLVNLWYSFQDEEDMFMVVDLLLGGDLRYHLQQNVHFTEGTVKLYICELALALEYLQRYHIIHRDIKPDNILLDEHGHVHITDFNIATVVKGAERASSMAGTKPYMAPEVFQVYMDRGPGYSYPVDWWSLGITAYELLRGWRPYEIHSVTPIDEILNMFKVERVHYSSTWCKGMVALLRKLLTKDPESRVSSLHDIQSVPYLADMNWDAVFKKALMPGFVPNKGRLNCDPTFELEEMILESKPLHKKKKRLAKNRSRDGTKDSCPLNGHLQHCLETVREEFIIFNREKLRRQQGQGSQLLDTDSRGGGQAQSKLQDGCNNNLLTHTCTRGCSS
Description: as §1, §2

PIK4CB = PIK4CB (Homo sapiens, UniProt Q9UBF8)
Sequence of PIK4CB (Q9UBF8 whole entry, species assumed): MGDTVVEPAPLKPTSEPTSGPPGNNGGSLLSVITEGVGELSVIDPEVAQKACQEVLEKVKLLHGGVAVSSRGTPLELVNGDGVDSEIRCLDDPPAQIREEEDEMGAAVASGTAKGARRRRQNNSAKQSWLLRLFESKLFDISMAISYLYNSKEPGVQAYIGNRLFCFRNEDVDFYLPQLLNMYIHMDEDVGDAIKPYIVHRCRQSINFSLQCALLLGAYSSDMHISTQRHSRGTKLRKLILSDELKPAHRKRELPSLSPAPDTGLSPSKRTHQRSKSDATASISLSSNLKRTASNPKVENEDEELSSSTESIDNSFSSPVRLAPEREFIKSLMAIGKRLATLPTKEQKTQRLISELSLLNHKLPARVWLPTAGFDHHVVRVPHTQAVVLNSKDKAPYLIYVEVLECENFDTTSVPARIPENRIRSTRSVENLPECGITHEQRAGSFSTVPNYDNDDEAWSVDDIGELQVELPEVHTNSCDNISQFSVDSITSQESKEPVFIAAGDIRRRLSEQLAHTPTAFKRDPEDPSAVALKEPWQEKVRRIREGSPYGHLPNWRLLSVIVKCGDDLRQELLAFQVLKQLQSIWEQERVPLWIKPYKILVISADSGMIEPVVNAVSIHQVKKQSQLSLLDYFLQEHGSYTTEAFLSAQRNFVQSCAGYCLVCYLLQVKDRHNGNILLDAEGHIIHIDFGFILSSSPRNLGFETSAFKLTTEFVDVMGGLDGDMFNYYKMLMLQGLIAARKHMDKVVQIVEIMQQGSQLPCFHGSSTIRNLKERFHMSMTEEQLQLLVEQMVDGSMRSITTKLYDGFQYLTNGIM
Description: as §1, §2

Sequence of CDK7 (P50613 whole entry): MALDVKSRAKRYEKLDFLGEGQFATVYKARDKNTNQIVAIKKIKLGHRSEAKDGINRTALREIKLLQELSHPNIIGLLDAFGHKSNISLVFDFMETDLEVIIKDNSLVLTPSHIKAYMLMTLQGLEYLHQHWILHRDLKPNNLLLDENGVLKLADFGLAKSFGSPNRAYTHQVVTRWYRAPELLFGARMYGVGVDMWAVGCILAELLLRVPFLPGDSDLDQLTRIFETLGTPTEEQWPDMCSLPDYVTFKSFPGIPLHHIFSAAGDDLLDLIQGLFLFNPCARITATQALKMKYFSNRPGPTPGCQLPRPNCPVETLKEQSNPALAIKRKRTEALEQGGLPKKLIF

Compound	Kd (CDK7) [µM]	Kd (PRKCE) [µM]	Kd (RSK1) [µM]	Kd (AAK1) [µM]	Kd (CDKL5) [µM]	Kd (BMPR1B) [µM]	Kd (YANK2) [µM]	Kd (PIK4CB) [µM]
Nc1nc2c(-c3ccccn3)nccc2[nH]1 [drawing 35, 4-(pyrid-2-yl)-1H-imidazo[4,5-c]pyridin-2-amine]	7.5	> 30	0.53	1.5	–	–	–	–
Nc1nc2c(-c3cnc4ccccc4c3)nccc2[nH]1 [drawing 36, 4-(quinolin-3-yl)-1H-imidazo[4,5-c]pyridin-2-amine]	–	–	–	–	> 30	7.2	> 30	0.35
